# Results from patent US20210330611A1, “THERAPY FOR NEUROLOGICAL DISEASES/DISORDERS” (priority 2020, published 2021).
# Where two headings read alike, the source gives them in different places.
# Legend:
# [1] = system: primary rat microglia; experiment: Cell toxicity (dead cells, size <150 μm2) in coated fibrin (cFib) assay; details: for IC50: read-out: Cell Toxicity IC50 (uM) [cFib assay];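 as to Fibrin % cell toxicity: share of dead cells sized under 150 µm2 at 10 µM in fibrin-stimulated microglia HTS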
# [2] = system: fibrin-induced microglia activation; experiment: Image-based assay of fibrin-induced microglia activation (HTS and dose response); assay type: cell-based, rat; details: for inhibition at 10 µM: Rattus norvegicus, Microglia, read-out: Fibrin % inhibition
# [3] = system: fibrin- and LPS-induced microglia activation; experiment: cells; assay type: cell-based, rat
# [4] = system: primary rat microglia; experiment: Cell toxicity (dead cells, size <150 μm2) in LPS assay; details: for IC50: read-out: Cell Toxicity IC50 (uM) [LPS assay]
# [5] = system: LPS-induced microglia activation; experiment: Image-based assay of LPS-induced microglia activation (HTS and dose response); assay type: cell-based, rat; details: for inhibition at 10 µM: Rattus norvegicus, Microglia, read-out: LPS % inhibition
# [6] = primary microglia HTS, fibrin stimulation, decreased size (<150 μm^2) as marker of toxicity
# [7] = primary microglia HTS, fibrin stimulation, increased cell size (>800 μm^2) as marker of activation
# [8] = HTS of 1907 compounds, quadrant by fibrin and LPS inhibition
# [9] = quadrant by fibrin and LPS inhibition in HTS of 1907 compounds
# [10] = primary microglia HTS, LPS stimulation, decreased size (<150 μm^2) as marker of toxicity
# [11] = primary microglia HTS, LPS stimulation, increased cell size (>800 μm^2) as marker of activation
# [12] = 48 h, primary microglia HTS, LPS stimulation, increased cell size (>800 μm^2) as marker of activation
# [13] = primary microglia HTS, 10 μM, fibrin assay, cell size <150 μm^2 as marker of toxicity
# [14] = primary microglia HTS, 10 μM, fibrin-stimulated, cell size >800 μm^2 as marker of activation
# [15] = primary microglia HTS, 10 μM, LPS assay, cell size <150 μm^2 as marker of toxicity
# [16] = primary microglia HTS, 10 μM, LPS-stimulated, cell size >800 μm^2 as marker of activation
# [17] = primary HTS, 10 μM, fibrin assay, dead cells size <150 μm2
# [18] = primary HTS, 10 μM, fibrin-stimulated primary microglia
# [19] = primary HTS, 10 μM, LPS assay, dead cells size <150 μm2
# [20] = primary HTS, 10 μM, LPS-stimulated primary microglia
compound,measurement,setting,value
"CCC(=O)OCC(=O)[C@@]1(OC(=O)CC)[C@H](C)C[C@H]2[C@H]3[C@H]([C@@H](O)C[C@@]21C)[C@@]1(C)C=CC(=O)C=C1C[C@H]3Cl [Alclometazone dipropionate, reference compound]",Fibrin % cell toxicity,[1]; [6],2%
same,IC50,[1]; Table 3,> 20 µM
same,IC50,[1]; cFib assay,> 20 µM
same,IC50,"[1]; cFib assay, Table 6",> 20 µM
same,Fibrin Selectivity (LOG10),[2],3.33
same,IC50,"[2]; Table 1, dose response 0.001-20 μM, triplicates, primary rat microglia, 48 h, read-out: Fibrin IC50",< 0.001 µM
same,IC50,"[2]; Table 3, read-out: Fibrin IC50 (uM) (Suppl. Table 7)",< 0.001 µM
same,IC50,"[2]; Table 6, read-out: Fibrin IC50 (uM) (Suppl. Table 7)",< 0.001 µM
same,IC50,"[2]; dose response, fibrin-induced microglia activation, read-out: Fibrin IC50",< 0.001 µM
same,Fibrin Selectivity (LOG10),"[2]; fibrin vs LPS, LOG10, Table 6",3.33
same,Fibrin Selectivity,"[2]; fibrin vs LPS, Table 6",2153
same,IC50,"[2]; fibrin-induced microglia activation, dose response, read-out: Fibrin IC50 (uM) (Suppl. Table 7)",< 0.001 µM
same,Fibrin Selectivity,[2]; listed as Alclometazone Dipropion,≥ 2153
same,Fibrin Selectivity,[2]; listed as Alclometazone Dipropionate,2153
same,Fibrin % inhibition,[2]; [7],105%
same,Hit,[3]; HTS hit classification,HIT (Hits were defined as molecules that exhibited greater than 50% inhibition of either fibrin or LPS activation)
same,Quadrant (FIG. 5b),[3]; [8],Q2
same,Quadrant (FIG. 5b),"[3]; Table 1, screen at 10 μM",Q2
same,Cherry-picked Hit (Suppl. Table 7),[3]; Table 3,HIT (Hits were defined as molecules that exhibited greater than 50% inhibition of either fibrin or LPS activation)
same,Quadrant (FIG. 5b),"[3]; Table 3, screen at 10 μM",Q2
same,Cherry-picked Hit (Suppl. Table 7),[3]; hit classification in microglia HTS,HIT (Hits were defined as molecules that exhibited greater than 50% inhibition of either fibrin or LPS activation)
same,Cherry-picked Hit (Suppl. Table 7),"[3]; microglia HTS, Table 6",HIT (Hits were defined as molecules that exhibited greater than 50% inhibition of either fibrin or LPS activation)
same,Quadrant (FIG. 5b),"[3]; microglia HTS, Table 6",Q2
same,Quadrant (FIG. 5b),[3]; [9],Q2
same,LPS % cell toxicity,[4]; [10],2%
same,IC50,[4]; LPS assay,> 20 µM
same,IC50,"[4]; LPS assay, Table 6",> 20 µM
same,IC50,[4]; Table 3,> 20 µM
same,IC50,"[5]; LPS-induced microglia activation, dose response, read-out: LPS IC50 (uM) (Suppl. Table 7)",2 µM
same,IC50,"[5]; Table 1, dose response 0.001-20 μM, triplicates, primary rat microglia, 48 h, read-out: LPS IC50",2 µM
same,IC50,"[5]; Table 3, read-out: LPS IC50 (uM) (Suppl. Table 7)",2 µM
same,IC50,"[5]; Table 6, read-out: LPS IC50 (uM) (Suppl. Table 7)",2 µM
same,IC50,"[5]; dose response, LPS-induced microglia activation, read-out: LPS IC50",2 µM
same,LPS % inhibition,[5]; [11],82%
O=S(=O)(O)CCS [Mesna],Fibrin % cell toxicity,[1]; [6],1%
same,inhibition at 10 µM,[2]; [7],18%
same,Quadrant (FIG. 5b),[3]; [9],Q4
same,LPS % cell toxicity,[4]; [10],0%
same,inhibition at 10 µM,[5]; [12],5%
Cc1cccc(C)c1NC(=O)C1CCCCN1C (stereo not shown) [Mepivacaine],Fibrin % cell toxicity,[1]; [6],0%
same,inhibition at 10 µM,[2]; [7],7%
same,Quadrant (FIG. 5b),[3]; [9],Q4
same,LPS % cell toxicity,[4]; [10],0%
same,inhibition at 10 µM,[5]; [12],10%
CCOC(=O)C1=C(C)NC(C)=C(C(=O)OC)C1c1cccc([N+](=O)[O-])c1 (stereo not shown) [Nitrendipine],Fibrin % cell toxicity,[1]; [6],1%
same,inhibition at 10 µM,[2]; [7],-12%
same,Quadrant (FIG. 5b),[3]; [9],Q4
same,LPS % cell toxicity,[4]; [10],0%
same,inhibition at 10 µM,[5]; [12],18%
CN1CCN(C(=O)OC2c3nccnc3C(=O)N2c2ccc(Cl)cn2)CC1 (stereo not shown) [Zopiclone],Fibrin % cell toxicity,[1]; [13],1%
same,inhibition at 10 µM,[2]; [14],11%
same,Quadrant (FIG. 5b),[3]; [8],Q4
same,LPS % cell toxicity,[4]; [15],0%
same,inhibition at 10 µM,[5]; [16],5%
NC(=O)c1ccc[n+]([C@@H]2O[C@H](COP(=O)([O-])OP(=O)(O)OC[C@H]3O[C@@H](n4cnc5c(N)ncnc54)[C@H](O)[C@@H]3O)[C@@H](O)[C@H]2O)c1 [Nadide],Fibrin % cell toxicity,[1]; [6],1%
same,inhibition at 10 µM,[2]; [7],-14%
same,Quadrant (FIG. 5b),[3]; [9],Q4
same,LPS % cell toxicity,[4]; [10],0%
same,inhibition at 10 µM,[5]; [12],5%
NC(=O)N1c2ccccc2C=Cc2ccccc21 [Carbamazepine],Fibrin % cell toxicity,[1]; [17],0%
same,inhibition at 10 µM,[2]; [18],-25%
same,Quadrant (FIG. 5b),"[3]; primary HTS, 10 μM",Q4
same,LPS % cell toxicity,[4]; [19],0%
same,inhibition at 10 µM,[5]; [20],4%
C[C@]12C/C(=C/O)C(=O)C[C@@H]1CC[C@@H]1[C@@H]2CC[C@@]2(C)[C@H]1CC[C@]2(C)O [Oxymetholone],Fibrin % cell toxicity,[1]; [6],1%
same,inhibition at 10 µM,[2]; [7],-18%
same,Quadrant (FIG. 5b),[3]; [9],Q4
same,LPS % cell toxicity,[4]; [10],0%
same,inhibition at 10 µM,[5]; [12],-7%
CC(C)CCCC(C)NC(C)C (stereo not shown) [Iproheptine],Fibrin % cell toxicity,"[1]; primary microglia HTS, fibrin stimulation, toxicity = cell size <150 μm2",1%
same,inhibition at 10 µM,"[2]; primary microglia HTS, fibrin stimulation, activation = cell size >800 μm2",-34%
same,Quadrant (FIG. 5b),[3]; [9],Q4
same,LPS % cell toxicity,"[4]; primary microglia HTS, LPS stimulation, toxicity = cell size <150 μm2",0%
same,inhibition at 10 µM,"[5]; 48 h, primary microglia HTS, LPS stimulation, activation = cell size >800 μm2",11%
COC(=O)C[C@](O)(CCCC(C)(C)O)C(=O)O[C@@H]1C(OC)=C[C@]23CCCN2CCc2cc4c(cc2[C@H]13)OCO4 [Homoharringtonie],Fibrin % cell toxicity,[1]; [6],90%
same,Fibrin % inhibition,[2]; [7],106%
same,Quadrant (FIG. 5b),[3]; [9],Q2
same,LPS % cell toxicity,[4]; [10],67%
same,LPS % inhibition,[5]; [11],106%
C=CC1=C(C(=O)O)N2C(=O)[C@@H](NC(=O)/C(=N\O)c3csc(N)n3)[C@H]2SC1 [Cefdinir],Fibrin % cell toxicity,[1]; [17],1%
same,inhibition at 10 µM,[2]; [18],-9%
same,Quadrant (FIG. 5b),"[3]; primary HTS, 10 μM",Q4
same,LPS % cell toxicity,[4]; [19],0%
same,inhibition at 10 µM,[5]; [20],16%
CN1CCN(C(c2ccccc2)c2ccc(Cl)cc2)CC1 (stereo not shown) [Chlorcyclizine],Fibrin % cell toxicity,[1]; [17],1%
same,inhibition at 10 µM,[2]; [18],9%
same,Quadrant (FIG. 5b),"[3]; primary HTS, 10 μM",Q4
same,LPS % cell toxicity,[4]; [19],0%
same,inhibition at 10 µM,[5]; [20],6%
Cc1ccc(Nc2c(F)cccc2Cl)c(CC(=O)O)c1 [Lumiracoxib],Fibrin % cell toxicity,[1]; [6],1%
same,inhibition at 10 µM,[2]; [7],14%
same,Quadrant (FIG. 5b),[3]; [9],Q4
same,LPS % cell toxicity,[4]; [10],0%
same,inhibition at 10 µM,[5]; [12],18%
CC(S)C(=O)NCC(=O)O (stereo not shown) [Tiopronin],Fibrin % cell toxicity,[1]; [13],1%
same,inhibition at 10 µM,[2]; [14],-8%
same,Quadrant (FIG. 5b),[3]; [8],Q4
same,LPS % cell toxicity,[4]; [15],0%
same,inhibition at 10 µM,[5]; [16],6%
CCCNC(=O)NS(=O)(=O)c1ccc(Cl)cc1 [Chlorpropamide],Fibrin % cell toxicity,[1]; [17],1%
same,inhibition at 10 µM,[2]; [18],3%
same,Quadrant (FIG. 5b),"[3]; primary HTS, 10 μM",Q4
same,LPS % cell toxicity,[4]; [19],1%
same,inhibition at 10 µM,[5]; [20],17%
Viomycin Sulfate,Fibrin % cell toxicity,[1]; [13],0%
same,Fibrin % inhibition,[2]; [14],−7%
same,Quadrant (FIG. 5b),[3]; [8],Q4
same,LPS % cell toxicity,[4]; [15],0%
same,LPS % inhibition,[5]; [16],19%
CO[C@@]1(NC(=O)CSCC#N)C(=O)N2C(C(=O)O)=C(CSc3nnnn3C)CS[C@@H]21 [Cefmetazole],Fibrin % cell toxicity,[1]; [17],0%
same,inhibition at 10 µM,[2]; [18],-50%
same,Quadrant (FIG. 5b),"[3]; primary HTS, 10 μM",Q4
same,LPS % cell toxicity,[4]; [19],0%
same,inhibition at 10 µM,[5]; [20],8%
N[C@@H](C(=O)N[C@@H]1C(=O)N2C(C(=O)O)=C(Cl)CS[C@H]12)c1ccccc1 [Cefaclor],Fibrin % cell toxicity,[1]; [17],1%
same,inhibition at 10 µM,[2]; [18],-14%
same,Quadrant (FIG. 5b),"[3]; primary HTS, 10 μM",Q4
same,LPS % cell toxicity,[4]; [19],0%
same,inhibition at 10 µM,[5]; [20],19%
COC(=O)C1=C(C)NC(C)=C(C(=O)OCCN(C)Cc2ccccc2)C1c1cccc([N+](=O)[O-])c1 (stereo not shown) [Nicardipine],Fibrin % cell toxicity,[1]; [6],0%
same,inhibition at 10 µM,[2]; [7],11%
same,Quadrant (FIG. 5b),[3]; [9],Q4
same,LPS % cell toxicity,[4]; [10],0%
same,inhibition at 10 µM,[5]; [12],12%
Cc1nc(C)c(Cl)c(O)c1Cl [Clopidol],Fibrin % cell toxicity,[1]; [17],1%
same,inhibition at 10 µM,[2]; [18],-41%
same,Quadrant (FIG. 5b),"[3]; primary HTS, 10 μM",Q4
same,LPS % cell toxicity,[4]; [19],0%
same,inhibition at 10 µM,[5]; [20],9%
CC1CCCC(C)N1 (stereo not shown) [Nanofin],Fibrin % cell toxicity,[1]; [6],1%
same,Fibrin % inhibition,[2]; [7],17%
same,Quadrant (FIG. 5b),[3]; [9],Q4
same,LPS % cell toxicity,[4]; [10],0%
same,LPS % inhibition,[5]; [11],12%
Nonoxynol-9,Fibrin % cell toxicity,[1]; [6],0%
same,Fibrin % inhibition,[2]; [7],−7%
same,Quadrant (FIG. 5b),[3]; [9],Q4
same,LPS % cell toxicity,[4]; [10],0%
same,LPS % inhibition,[5]; [11],23%
